Source: PubChem BioAssay (NCI)
Several values for one entry are separate records, joined by “and”; a condition that tells them apart may be missing. Identical values can stand only once.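 Method: 48-hour compound exposure of cells in 96-well plates, five concentrations, linear interpolation of endpoints. Abbreviation: GI50, concentration required for 50% inhibition of growth. At the TGI there is no net growth.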

Tests used:
Assay in all cases: DTP human tumour cell line panel, 48 h
HL-60(TB) leukemia = test system: HL-60(TB) leukemia
NCI-H460 lung = test system: NCI-H460 lung
MALME-3M melanoma = test system: MALME-3M melanoma
BT-549 breast = test system: BT-549 breast
ACHN renal = test system: ACHN renal
HS 578T breast = test system: HS 578T breast
RPMI-8226 leukemia = test system: RPMI-8226 leukemia
CCRF-CEM leukemia = test system: CCRF-CEM leukemia

| SMILES | GI50 (HL-60(TB) leukemia) | TGI (HL-60(TB) leukemia) | GI50 (NCI-H460 lung) | TGI (NCI-H460 lung) | GI50 (MALME-3M melanoma) | TGI (MALME-3M melanoma) | GI50 (BT-549 breast) | TGI (BT-549 breast) | GI50 (ACHN renal) | TGI (ACHN renal) | GI50 (HS 578T breast) | TGI (HS 578T breast) | GI50 (RPMI-8226 leukemia) | TGI (RPMI-8226 leukemia) | GI50 (CCRF-CEM leukemia) | TGI (CCRF-CEM leukemia) |
| --- | --- | --- | --- | --- | --- | --- | --- | --- | --- | --- | --- | --- | --- | --- | --- | --- |
| CN1CCN(CCCOc2cccc3nc(Nc4ccc(Cl)c(C(F)(F)F)c4)ccc23)CC1 | 1.87 µM | 4.03 µM | 1.72 µM | 3.52 µM | 1.75 µM | 3.45 µM | 1.71 µM | 3.31 µM | 1.59 µM | 3.07 µM | 2 µM | 4.66 µM |  |  |  |  |
| Cc1cc([N+](=O)[O-])c2ccccc2[n+]1[O-] | 2.11 µM and 1.65 µM | 6.48 µM and 5.51 µM | 0.0307 µM and 0.0282 µM | 0.129 µM and 0.109 µM | 1.39 µM and 2.17 µM | 3.07 µM and 4.34 µM | 0.216 µM and 0.388 µM | 0.879 µM and 1.63 µM | 0.0758 µM and 0.0614 µM | 0.394 µM and 0.721 µM | 1.18 µM and 0.989 µM | 5.74 µM and 4.8 µM | 0.0602 µM and 0.0308 µM | 0.359 µM and 0.0948 µM | 2.24 µM and 0.65 µM | > 47.8 µM and 7.18 µM |
| CC[n+]1c(/C=C/C=C2\N(C)c3ccccc3C2(C)C)sc2ccccc21 | 5.16 µM | 12.1 µM | 4.5 µM | 8.93 µM | 4.28 µM | 8.1 µM | 4.3 µM | 8.6 µM | 4.1 µM | 8.21 µM | 5.63 µM | 20.1 µM | 2.99 µM | 10.1 µM | 4.96 µM | 18.1 µM |
| c1ccc2c3c([nH]c2c1)C(c1ccc(C2NCCc4c2[nH]c2ccccc42)cc1)NCC3 (centres undefined) | 1.13 µM | 2.81 µM | 0.221 µM | 0.449 µM | 1.55 µM | 3.11 µM | 11.1 µM | 24.4 µM | 0.713 µM | 2 µM | 1.43 µM | 3.82 µM | 0.34 µM | 1.09 µM | 0.452 µM | 2.03 µM |
| Cn1cc(C2=C(c3cn(CCCCCSC(=N)N)c4ccccc34)C(=O)NC2=O)c2ccccc21 | 3.62 µM | 7.85 µM | 3.73 µM | 7.75 µM | 4.25 µM | 8.08 µM | 3.65 µM | 7.12 µM | 3.54 µM | 6.94 µM | 2.24 µM | 11.1 µM | 4.13 µM | 9.61 µM | 1.93 µM | 5.87 µM |
| CCCCCCCCCCCC[n+]1ccc2ccccc2c1 | 0.267 µM | 0.954 µM | 1.69 µM | 3.27 µM |  |  | 0.907 µM | 2.49 µM | 1.89 µM | 7.56 µM | 1.54 µM | 3.88 µM | 0.295 µM | 0.949 µM | 0.317 µM | 2.09 µM |
| O=C1NC(=NCCCc2ccccc2)S/C1=C\c1ccc2ncccc2c1 | 5.49 µM | 16 µM | 4.08 µM | 11.8 µM | 7.43 µM | 19.3 µM | 4.58 µM | 10.4 µM | 5.08 µM | 15.6 µM | 5.11 µM | 16 µM | 5.52 µM | 14.6 µM | 7.11 µM | > 25 µM |
| C#CCOc1ccc2ncnc(Nc3ccc(NC(=O)C=C)cc3)c2c1 | 4.97 µM | 32.5 µM | > 100 µM | > 100 µM | 6.23 µM | 30.2 µM | 39.3 µM | > 100 µM | 28.2 µM | > 100 µM | 62 µM | > 100 µM | 2.63 µM | 7.44 µM | 4.26 µM | 40.8 µM |
| COc1cc2c(=O)[nH]c3cc([N+](=O)[O-])ccc3c2cc1[N+](=O)[O-] | > 100 µM | > 100 µM |  |  | 9.91 µM | > 100 µM | 7.89 µM | > 100 µM | 3.71 µM | 91.4 µM | 23.3 µM | > 100 µM |  |  | 3.99 µM | > 100 µM |
| COc1cc2nc3cc([N+](=O)[O-])ccc3c(NCCNCC(C)(C)O)c2cc1OC | 2.83 µM | 7.49 µM | 0.377 µM | 1.47 µM | 0.622 µM | 1.97 µM | 1.84 µM | 4.14 µM | 0.657 µM | 4.19 µM | 1.75 µM | 6.15 µM | 1.49 µM | 5.8 µM | 0.573 µM | 5.13 µM |
| CCC(=O)c1c(C(F)(F)F)n([O-])c2cc(F)c(F)cc2[n+]1=O | 0.638 µM | 6.55 µM | 1.76 µM | 4.89 µM | 0.845 µM | 2.24 µM | 1.52 µM | 3.05 µM | 1.25 µM | 2.66 µM | 1.79 µM | 5.82 µM | 0.394 µM | 1.6 µM | 0.108 µM | 0.555 µM |
| CN(Cc1cnc2nc(N)nc(N)c2n1)c1ccc(C(=O)NC(CCC(=O)O)C(=O)O)cc1Br (centres undefined) | < 0.01 µM | > 100 µM | < 0.01 µM | 4.9 µM | < 0.01 µM | 3.92 µM | < 0.01 µM | 2.5 µM | < 0.01 µM | > 100 µM | 1.1 µM | 6.39 µM | < 0.01 µM | > 100 µM | < 0.01 µM | > 44.5 µM |
| O=C1c2ccccc2C(=O)c2c(OCCOCCO)cccc21 |  | > 100 µM |  | > 100 µM |  | > 100 µM |  | > 100 µM |  | > 100 µM |  | 99.7 µM |  |  |  |  |
| COc1ccc(/C(C#N)=C2C=C/C(=N/O)c3ccccc3\2)cc1 | 0.254 µM | 0.688 µM | 0.31 µM | 1.23 µM |  |  | 0.333 µM | 8.18 µM | 0.318 µM | 15.4 µM | 0.258 µM | 6.33 µM | 0.371 µM | 9.76 µM | 0.254 µM | 12.6 µM |
| CO[C@H]1C[C@@H]2CC[C@@H](C)[C@@](O)(O2)C(=O)C(=O)N2CCCC[C@H]2C(=O)O[C@H]([C@H](C)C[C@@H]2CC[C@@H](OCCO)[C@H](OC)C2)CC(=O)[C@H](C)C=C(C)[C@@H](O)[C@@H](OC)C(=O)[C@H](C)C[C@H](C)/C=C/C=C/C=C1C | 8.63 µM | 38.4 µM |  | 19.4 µM | < 0.01 µM |  | < 0.01 µM |  | < 0.01 µM | 18.8 µM | < 0.01 µM |  | < 0.01 µM | 14.1 µM |  | > 43.1 µM |
| COc1nnc2ccc(N3CCC(c4ccc(OCCN5CCN(C)C(=O)[C@H]5C)cc4)CC3)nn12 | 0.0309 µM | > 100 µM | 0.373 µM | > 100 µM | 0.431 µM | > 100 µM | 1.87 µM | > 100 µM | 0.172 µM | > 100 µM | 0.0419 µM | > 62.7 µM | 0.0229 µM | 54 µM | 0.323 µM | > 100 µM |
